# From EP0509845A1, “(+) and (-) enantiomers of 5-aliphatic-6-(benzoxazinyl- or benzothiazinyl)-2,3,4,5-tetrahydropyridazin-3-ones” (ORTHO PHARMACEUTICAL CORPORATION, priority 1991, dated 1992)
# Read-outs that look alike come from different tables or passages of the source.
# Columns and labels:
# [1] = tested on: adult mongrel dogs; assay: Comparative racemate and enantiomer hemodynamic testing in pentobarbital anesthetized open-chest dogs; format: in vivo; conditions: for CO Percent Change from Control: cardiac output; for CO Percent Change from Control / CF Percent Change from Control / HR Percent Change from Control / LVEDP Percent Change from Control / MAP Percent Change from Control / dP/dtmax Percent Change from Control / RAP Percent Change from Control / SV Percent Change from Control / SW Percent Change from Control / TPR Percent Change from Control: anesthetized open-chest dogs; for CF Percent Change from Control: contractile force; for HR Percent Change from Control: heart rate; for LVEDP Percent Change from Control: left ventricular end diastolic pressure; for MAP Percent Change from Control: mean blood pressure; for dP/dtmax Percent Change from Control: peak rate of rise in left ventricular pressure; for RAP Percent Change from Control: right atrial pressure; for SV Percent Change from Control: stroke volume (CO/HR x 1000); for SW Percent Change from Control: stroke work; for TPR Percent Change from Control: total peripheral resistance
# Method: Adult mongrel dogs weighing approximately l0-l4 kg were anesthetized with sodium pentobarbital (35 mg/kg, i.p.) and artificially respired. A femoral artery was cannulated to measure mean arterial pressure (MAP) and a femoral vein was cannulated for administering compounds. A Millar microtip pressure transducer was placed in the left ventricle via the left carotid artery to measure left ventricular end diastolic pressure (EDP). pressure pulses triggered a cardiotachometer for determination of heart rate (HR) while the left ventricular pressure waveform was differentiated using a Gould differentiating amplifier to yield dP/dtmax, an index of contractility. A right thoractomy was performed at the fourth intercostal space and the pericardial sac was opened. An externally calibrated Walton-Brodie strain gauge arch was sutured to the right ventricular free wall and stretched to produce a baseline force of approximately l00g. Subsequent changes in right ventricular contractile force (CF) were measured from this baseline. A Carolina electromagnetic flow probe was placed on the ascending aorta to estimate cardiac output (CO). A flexible fluid-filled catheter was inserted into the tip of the right atrium to measure right atrial pressure (RAP). Needle electrodes were placed in the appropriate limbs to record a lead II electrocardiogram (ECG). The following formulas were used to calculate derived parameters: Stroke volume (SV) = CO/HR x l000 Stroke work (SW) = ([…]) x SV Total peripheral resistance (TPR) = (MAP-EDP)/CO
# Following surgery and stabilization of hemodynamic parameters, an i.v. infusion of dopamine (l0-l5 µg/kg/min for 3 min) was administered with a Harvard infusion pump to assess responsiveness to positive inotropic stimulation. Baseline hemodynamic values were obtained immediately prior to drug infusion. Responses were continuously monitored on a recorder (Gould 2800) and data collection was facilitated by the use of a Buxco cardiovascular analyzer and data logger.
# In the comparative testing a stock solution of each enantiomer (l mg/ml) was prepared fresh daily and diluted before use. Compounds were dissolved in a small volume of dimethylformamide (DMF) and diluted with saline for a final concentration of l5% DMF. Further dilutions were made with a l5% DMF solution.
# In the comparative testing each compound was administered in cumulative doses to separate dogs. Data were obtained at the end of each dose. (±) Bemoradan and (+) Bemordan were infused at cumulative doses of 5, l5, 35 and 75 µg/kg, administered with a Harvard infusion pump for 5 minutes each at rates of 0.56, l.l, 2.2, and […], respectively. (-) Bemoradan was given at doses of 5, l5 and 35 µg/kg following the same protocol. The high dose of the (-) isomer was not administered as a means of conserving compound.
# Hemodynamic results were expressed as the percent change from pre-drug baseline values and compared using a Dunnett's test with a criterion for significance of p < 0.05. Contractile force ED₄₀ values (i.e., the dose which increased contractile force by 40%) were calculated from dose-response regression lines.
# [2] = biological target: T1, canine cardiac cyclic nucleotide phosphodiesterase (PDE) fraction III (Canis lupus familiaris, UniProt A0A8I3NYE0); assay: Cyclic AMP phosphodiesterase assay with fraction III isoenzyme, comparative testing; format: biochemical
# T1 construct: The fraction III isoenzyme was pooled and dialyzed; from tissue; host or cells: canine heart, soluble supernatant, DEAE cellulose fraction III (800 mM sodium acetate eluate)
# T1 sequence (A0A8I3NYE0 1-1135): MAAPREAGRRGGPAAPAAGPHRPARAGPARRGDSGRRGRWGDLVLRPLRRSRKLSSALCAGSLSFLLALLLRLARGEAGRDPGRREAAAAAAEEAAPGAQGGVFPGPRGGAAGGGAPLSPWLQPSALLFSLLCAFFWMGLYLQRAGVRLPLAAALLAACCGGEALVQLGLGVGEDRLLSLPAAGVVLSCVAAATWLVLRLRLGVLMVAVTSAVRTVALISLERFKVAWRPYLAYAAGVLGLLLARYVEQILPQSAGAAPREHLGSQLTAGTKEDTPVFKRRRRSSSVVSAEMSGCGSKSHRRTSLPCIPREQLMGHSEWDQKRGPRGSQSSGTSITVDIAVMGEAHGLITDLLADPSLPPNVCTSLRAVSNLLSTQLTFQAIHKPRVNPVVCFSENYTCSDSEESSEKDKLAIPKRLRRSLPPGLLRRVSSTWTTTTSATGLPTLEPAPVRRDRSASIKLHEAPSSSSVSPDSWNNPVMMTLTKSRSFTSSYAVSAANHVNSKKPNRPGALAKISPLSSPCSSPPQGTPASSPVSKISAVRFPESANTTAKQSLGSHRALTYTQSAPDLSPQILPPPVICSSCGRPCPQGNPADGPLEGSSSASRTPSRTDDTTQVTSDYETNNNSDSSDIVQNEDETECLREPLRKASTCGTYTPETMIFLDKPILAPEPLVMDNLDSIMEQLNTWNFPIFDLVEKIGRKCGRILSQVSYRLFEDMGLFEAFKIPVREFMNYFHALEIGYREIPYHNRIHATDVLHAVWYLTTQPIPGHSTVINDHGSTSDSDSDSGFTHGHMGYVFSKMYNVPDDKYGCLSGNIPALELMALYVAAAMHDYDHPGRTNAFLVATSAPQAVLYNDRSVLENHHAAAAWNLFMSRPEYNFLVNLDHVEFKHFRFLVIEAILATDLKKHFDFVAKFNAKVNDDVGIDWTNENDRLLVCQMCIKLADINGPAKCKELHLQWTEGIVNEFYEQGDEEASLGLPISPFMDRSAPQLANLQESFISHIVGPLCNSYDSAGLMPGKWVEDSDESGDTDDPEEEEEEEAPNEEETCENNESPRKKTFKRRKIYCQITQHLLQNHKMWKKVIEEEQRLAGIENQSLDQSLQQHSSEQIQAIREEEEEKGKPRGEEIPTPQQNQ
structure (smiles),measurement,setting,value
"CC1CC(=O)NN=C1c1ccc2c(c1)OCC(=O)N2 (single isomer, unassigned; isomer 6) [(-) isomer, 6-(3,4-dihydro-3-oxo-l,4(2H)-benzoxazin-7-yl)-2,3,4,5-tetrahydro-5-methyl-pyridazin-3-one]","Potency Difference (-vs+), In vivo inotropic ED40, i.v.",[1]; (-) isomer versus (+) isomer,7 x
same,"In vivo inotropic ED40, i.v.","[1]; Table I summary, dose increasing contractile force by 40%, dogs, i.v.",5.7 µg/kg
same,CO Percent Change from Control,[1]; cumulative i.v. dose 5 µg/kg,2.9±0.5%
same,CO Percent Change from Control,[1]; cumulative i.v. dose 15 µg/kg,0.8±1.9%
same,CO Percent Change from Control,[1]; cumulative i.v. dose 35 µg/kg,-3.4±2.4%
same,CF Percent Change from Control,[1]; cumulative i.v. dose 5 µg/kg,28.3±4.4%
same,CF Percent Change from Control,[1]; cumulative i.v. dose 15 µg/kg,119.9±18.8%
same,CF Percent Change from Control,[1]; cumulative i.v. dose 35 µg/kg,187.2±28.9%
same,CF ED40 (µg/kg) with 95% F.L.,"[1]; dose causing a 40% increase in contractility above baseline, from dose-response regression lines, i.v. infusion, dogs",5.7 (2.9 - 8.3) µg/kg
same,HR Percent Change from Control,[1]; cumulative i.v. dose 5 µg/kg,-3.1±0.5%
same,HR Percent Change from Control,[1]; cumulative i.v. dose 15 µg/kg,10.5±1.2%
same,HR Percent Change from Control,[1]; cumulative i.v. dose 35 µg/kg,17.1±3.6%
same,LVEDP Percent Change from Control,[1]; cumulative i.v. dose 5 µg/kg,-10.6±4.4%
same,LVEDP Percent Change from Control,[1]; cumulative i.v. dose 15 µg/kg,-20.7±5.1%
same,LVEDP Percent Change from Control,[1]; cumulative i.v. dose 35 µg/kg,-25.1±8.0%
same,MAP Percent Change from Control,[1]; cumulative i.v. dose 5 µg/kg,-7.4±3.4%
same,MAP Percent Change from Control,[1]; cumulative i.v. dose 15 µg/kg,-12.8±4.5%
same,MAP Percent Change from Control,[1]; cumulative i.v. dose 35 µg/kg,-18.7±4.3%
same,dP/dtmax Percent Change from Control,[1]; cumulative i.v. dose 5 µg/kg,11.7±5.6%
same,dP/dtmax Percent Change from Control,[1]; cumulative i.v. dose 15 µg/kg,41.6±12.3%
same,dP/dtmax Percent Change from Control,[1]; cumulative i.v. dose 35 µg/kg,58.0±14.5%
same,RAP Percent Change from Control,[1]; cumulative i.v. dose 5 µg/kg,3.8±11.4%
same,RAP Percent Change from Control,[1]; cumulative i.v. dose 15 µg/kg,-0.9±16.4%
same,RAP Percent Change from Control,[1]; cumulative i.v. dose 35 µg/kg,-1.4±16.0%
same,SV Percent Change from Control,[1]; cumulative i.v. dose 5 µg/kg,0.06±0.9%
same,SV Percent Change from Control,[1]; cumulative i.v. dose 15 µg/kg,-8.4±1.8%
same,SV Percent Change from Control,[1]; cumulative i.v. dose 35 µg/kg,-15.2±4.0%
same,SW Percent Change from Control,[1]; cumulative i.v. dose 5 µg/kg,-7.8±4.2%
same,SW Percent Change from Control,[1]; cumulative i.v. dose 15 µg/kg,-19.8±6.3%
same,SW Percent Change from Control,[1]; cumulative i.v. dose 35 µg/kg,-29.7±7.7%
same,TPR Percent Change from Control,[1]; cumulative i.v. dose 5 µg/kg,-10.2±5.2%
same,TPR Percent Change from Control,[1]; cumulative i.v. dose 15 µg/kg,-12.8±7.5%
same,TPR Percent Change from Control,[1]; cumulative i.v. dose 35 µg/kg,-14.9±5.1%
same,"Potency Difference (-vs+), PDE III inhibition (IC50)",[2]; (-) isomer versus (+) isomer,44 x
same,"times more potent than the (+) isomer, inhibition of PDE III",[2]; (-) isomer versus (+) isomer,~44 times
same,"times more potent than the racemate, inhibition of PDE III",[2]; (-) isomer versus racemate,approximately 4 times
same,IC50,"[2]; Table I summary, canine cardiac PDE fraction III, read-out: PDE III inhibition (IC50)",180 nM
same,IC50,"[2]; canine heart fraction III, 0.1 µM cyclic AMP, read-out: PDE III IC50",180 nM
